From patent US3971757A, “3-Alkyl-4-oxo-imidazolidines and their 1-oxyls” (Ciba-Geigy Corporation, priority 1973, dated 1976)

Experiments:
[1] = Solubility in polyethylene sheets (visual examination for undissolved constituents); type: physicochemical; settings: 1 mm sheets; for Solubility 0.1%: 0.1 part in 100 parts polyethylene (density 0.917); for Solubility 0.3%: 0.3 part in 100 parts polyethylene (density 0.917)
Experimental: (§1) 100 Parts of polyethylene having a density of 0.917 are homogeneously mixed in a Brabender plastograph with 0.1 and 0.3 parts, respectively, of a light-stabilising agent of formula I at 180°C for 10 minutes. The resulting mixture is moulded in a platen press at 170°C to give 1 mm thick sheets, and these are then examined visually for undissolved constituents. The sheets are suspended at room temperature and periodically examined for efflorescence phenomena.

[2] = Compatibility with polyethylene sheets (efflorescence at room temperature); type: physicochemical; settings: 1 mm sheets; for Compatibility 0.1% (number of days over which no efflorescence phenomena are detectable): 0.1 part in 100 parts polyethylene; for Compatibility 0.3% (number of days over which no efflorescence phenomena are detectable): 0.3 part in 100 parts polyethylene
Experimental: as §1
*Compatibility: number of days over which no efflorescence phenomena are […]

[3] = Light stabilization of polypropylene film, carbonyl (CO) extinction on exposure in Xenotest 150; settings: 0.25 part per 100 parts polypropylene, 0.1 mm film, with 0.2 part antioxidant, no light stabilizer: 0.300 at 1,000 hours
Experimental: 100 parts of polypropylene powder (Moplen, fibre grade, from Messrs. Montedison) are homogenised with 0.2 part of β-(3,5-di-tert-butyl-4-hydroxyphenyl)-propionic acid octadecyl ester as the antioxidant and 0.25 part of a light stabilizer from Table 2 below, for 10 minutes in a Brabender plastograph at 200°C. The mass thus obtained is taken from the kneader as rapidly as possible and is pressed in a toggle press to give 2 - 3 mm thick sheets. A part of the pressed blank obtained is cut out and pressed between two high gloss hard aluminium foils for 6 minutes at 260°C and 12 tons pressure, using a manual hydraulic laboratory press, to give an 0.5 mm thick film which is immediately chilled in cold water. The 0.1 mm thick test film is produced from this 0.5 mm film under exactly the same conditions. Pieces of 60 × 44 mm are now punched from the 0.1 mm thick film and exposed in the Xenotest 150. At regular intervals of time, these test specimens are taken from the light exposure apparatus and examined for their carbonyl content in an IR-spectrophotometer. The increase in the carbonyl extinction during exposure to light is a measure of the photo-oxidative degradation of the polymer [see L. Balaban et al., J. Polymer Sci. Part C, 22, 1059-1071 (1969); J. F. Heacock, J. Polymer Sci. Part A-1, 22, 2921-34 (1969); D. J. Carlsson and DM. Wiles, Macromolecules 2,587-606 (1969)] and is, according to experience, associated with a deterioration of the mechanical properties of the polymer. Thus, for example, the film stabilised with antioxidant only is completely brittle when it reaches a carbonyl extinction of approx. 0.300. The protective action of the light stabilizers according to the invention can be seen from the following Table 3: […]

[4] = Light stabilization of polystyrene sheets, yellowing factor after exposure in Xenotest 150; settings: exposed 2,000 hours in Xenotest 150; 0.25 part per 100 parts polystyrene, 2 mm sheets; no light stabilizer: 20.0
Experimental: 100 parts of polystyrene granules are mixed dry with 0.25 part of a light stabilizer from Table 4 below and the mixture is regranulated in an extruder and subsequently moulded on an injection moulding machine to give 2 mm thick sheets. The sheets obtained are exposed for 2,000 hours in the Xenotest 150 apparatus and their yellowing is determined as follows, from the yellowing factor: [formula] wherein Δ T denotes the loss in transmission at wavelengths 420 and 680 nm respectively, which has occurred during exposure, and T(560) denotes the transmission value in percent of the unexposed sample at 560 nm.

SMILES | Solubility 0.1% [1] | Solubility 0.3% [1] | Compatibility 0.1% (number of days over which no efflorescence phenomena are detectable) [2] [days] | Compatibility 0.3% (number of days over which no efflorescence phenomena are detectable) [2] [days] | CO extinction (5.85 μ) ([3]; exposure time 6,000 hours) | Y.F. (yellowing factor) [4] | CO extinction (5.85 μ) ([3]; exposure time 5,000 hours)
O=C1N(CCCCN2C(=O)C3(CCCCC3)NC23CCCCC3)C2(CCCCC2)NC12CCCCC2 [VI] |  |  |  |  | 0.010 | 5.5 | 
O=C(CN1C(=O)C2(CCCCC2)NC12CCCCC2)OCC(COC(=O)CN1C(=O)C2(CCCCC2)NC12CCCCC2)(COC(=O)CN1C(=O)C2(CCCCC2)NC12CCCCC2)COC(=O)CN1C(=O)C2(CCCCC2)NC12CCCCC2 [XI] |  |  |  |  |  |  | 0.010
O=C1N(Cc2ccccc2)C2(CCCCC2)NC12CCCCC2 [I] |  |  |  |  | 0.010 | 4.5 | 

Now from value to compound, other results behind:

Solubility 0.1% [1] | Solubility 0.3% [1] | Compatibility 0.1% (number of days over which no efflorescence phenomena are detectable) [2] [days] | Compatibility 0.3% (number of days over which no efflorescence phenomena are detectable) [2] [days] | SMILES | CO extinction (5.85 μ) ([3]; exposure time 6,000 hours) | Y.F. (yellowing factor) [4] | CO extinction (5.85 μ) ([3]; exposure time 5,000 hours)
dissolv. | dissolv. | 200 | 200 | C=CCN1C(=O)C2(CCCCC2)NC12CCCCC2 [II] |  |  | 
dissolv. | dissolv. | 200 | 200 | CCCCCCCCCCCCCCCCCCN1C(=O)C2(CCCCC2)NC12CCCCC2 [IV] |  |  | 
dissolv. | dissolv. | 200 | 200 | CCCCCCCCOC(=O)CN1C(=O)C2(CCCCC2)NC12CCCCC2 [VIII] |  |  | 
dissolv. | dissolv. | 200 | 200 | CCCCCCCCN1C(=O)C2(CCCCC2)NC12CCCCC2 [III] |  |  | 
